From ChEMBL document CHEMBL5518164, “Membrane-permeable tenofovir-di- and monophosphate analogues” (Eur J Med Chem, 2024)
Activity calls are given as the source filed them. No cut-off for these calls is given here.

Tests used:
[1] = Drug hydrolysis in phosphate buffer saline incubated for 100 hrs in presence of pig liver esterase at pH 7.3 by RP18-HPLC analysis; format: ADME, Sus scrofa; conditions: read-out: Drug degradation
[2] = Drug metabolism in phosphate buffer saline assessed as gamma-monoalkylated metabolite formation in presence of pig liver esterase at pH 7.3 by RP18-HPLC analysis; format: ADME, Sus scrofa; conditions: isolated protein
[3] = Drug metabolism in phosphate buffer saline assessed as Tenofovir diphosphate formation in presence of pig liver esterase at pH 7.3 by RP18-HPLC analysis; format: ADME, Sus scrofa; conditions: isolated protein
[4] = Drug metabolism in human CEM/0 cell extracts assessed as Tenofovir monophosphate formation by RP18-HPLC analysis; format: ADME; conditions: ccrf-cem
[5] = target: T1, DNA polymerase subunit gamma-1 (Homo sapiens) (UniProt P54098); assay: Substrate activity at human DNA polymerase gamma assessed as n+1 band formation incubated for 120 mins in presence of primer/template mixture and dNTPs by primer extension assay based fluorescence analysis
T1 sequence (whole entry): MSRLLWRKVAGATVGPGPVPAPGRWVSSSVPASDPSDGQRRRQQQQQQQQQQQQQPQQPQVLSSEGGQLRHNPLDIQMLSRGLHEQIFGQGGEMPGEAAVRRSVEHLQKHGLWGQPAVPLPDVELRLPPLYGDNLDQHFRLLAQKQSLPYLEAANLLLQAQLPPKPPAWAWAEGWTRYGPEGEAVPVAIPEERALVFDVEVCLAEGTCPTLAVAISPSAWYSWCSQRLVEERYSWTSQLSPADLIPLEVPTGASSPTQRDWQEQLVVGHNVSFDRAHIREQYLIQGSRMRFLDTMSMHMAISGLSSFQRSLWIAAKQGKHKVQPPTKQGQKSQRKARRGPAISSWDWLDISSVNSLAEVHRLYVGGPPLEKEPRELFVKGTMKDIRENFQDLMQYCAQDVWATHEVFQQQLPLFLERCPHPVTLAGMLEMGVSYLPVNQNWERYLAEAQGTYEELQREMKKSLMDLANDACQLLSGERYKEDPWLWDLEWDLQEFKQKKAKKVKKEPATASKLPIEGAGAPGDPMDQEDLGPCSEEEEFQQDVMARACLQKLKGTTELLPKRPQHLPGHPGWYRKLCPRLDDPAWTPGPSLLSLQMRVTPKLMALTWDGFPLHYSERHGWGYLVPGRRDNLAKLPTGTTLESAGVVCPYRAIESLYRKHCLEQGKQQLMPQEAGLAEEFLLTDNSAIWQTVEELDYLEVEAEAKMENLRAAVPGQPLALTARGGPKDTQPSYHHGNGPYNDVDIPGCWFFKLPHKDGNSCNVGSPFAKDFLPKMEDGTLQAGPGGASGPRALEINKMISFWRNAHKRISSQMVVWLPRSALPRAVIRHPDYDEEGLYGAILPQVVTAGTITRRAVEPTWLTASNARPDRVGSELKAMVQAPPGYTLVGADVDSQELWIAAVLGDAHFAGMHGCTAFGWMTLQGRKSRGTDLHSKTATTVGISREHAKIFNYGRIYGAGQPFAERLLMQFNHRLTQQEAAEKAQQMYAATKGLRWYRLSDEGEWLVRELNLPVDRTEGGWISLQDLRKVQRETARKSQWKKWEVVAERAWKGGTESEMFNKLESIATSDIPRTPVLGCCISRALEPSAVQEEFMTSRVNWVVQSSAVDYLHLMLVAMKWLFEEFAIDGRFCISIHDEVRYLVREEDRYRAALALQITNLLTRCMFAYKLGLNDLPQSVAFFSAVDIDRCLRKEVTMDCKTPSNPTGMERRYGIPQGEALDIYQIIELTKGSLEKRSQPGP

[6] = Drug metabolism in phosphate buffer saline assessed as (R)-9-(2-(phosphonomethoxy)propyl)adenine formation in presence of pig liver esterase at pH 7.3 by RP18-HPLC analysis; format: ADME, Sus scrofa; conditions: isolated protein
[7] = Drug metabolism in human CEM/0 cell extracts assessed as (R)-9-(2-(phosphonomethoxy)propyl)adenine formation by RP18-HPLC analysis; format: ADME; conditions: ccrf-cem
[8] = system: Human immunodeficiency virus 1; assay: Potency index, ratio of Tenofovir EC50 to test compound EC50 for antiviral activity against HIV-1 HE infected in wild type human CEM/0 cells; format: functional
[9] = system: Human immunodeficiency virus 2; assay: Potency index, ratio of Tenofovir EC50 to test compound EC50 for antiviral activity against HIV-2 ROD infected in wild type human CEM/0 cells; format: functional
[10] = system: Human immunodeficiency virus 2; assay: Potency index, ratio of Tenofovir EC50 to test compound EC50 for antiviral activity against HIV-2 ROD infected in thymidine kinase deficient human CEM cells; format: functional
[11] = Drug hydrolysis in phosphate buffer saline incubated for 500 hrs at pH 7.3 by RP18-HPLC analysis; format: physicochemical; conditions: read-out: Drug degradation
[12] = Drug hydrolysis in phosphate buffer saline incubated for 600 hrs at pH 7.3 by RP18-HPLC analysis; format: physicochemical; conditions: read-out: Drug degradation
[13] = Drug metabolism in human CEM/0 cell extracts assessed as gamma-monoalkylated metabolite formation by RP18-HPLC analysis; format: ADME; conditions: ccrf-cem
[14] = Drug metabolism in human CEM/0 cell extracts assessed as Tenofovir diphosphate formation by RP18-HPLC analysis; format: ADME; conditions: ccrf-cem

SMILES	metabolised at 100 h [1] [%]	Drug metabolism [2]	Drug metabolism [3]	Drug metabolism [4]	Activity [5]	Drug metabolism [6]	Drug metabolism [7]	Ratio EC50 [8]	Ratio EC50 [9]	Ratio EC50 [10]	degraded at 500 h [11] [%]	degraded at 600 h [12] [%]	Drug metabolism [13]	Drug metabolism [14]
CCCCCCCCCCCCCCCCCCOP(=O)(OCCCC)OP(=O)(O)OP(=O)(O)CO[C@H](C)Cn1cnc2c(N)ncnc21 (stereo not given in full)	31	Metabolite_Notdetected	Metabolite_Notdetected	Metabolite_Detected	inactive									
CCCCCCCCCCCCCCCCCCP(=O)(OCCCC)OP(=O)(O)CO[C@H](C)Cn1cnc2c(N)ncnc21 (stereo not given in full)					inactive	Metabolite_Detected	Metabolite_Detected	59	567	326				
CCCCCCCCCCCCCCCCCCP(=O)(OCCCC)OP(=O)(O)OP(=O)(O)CO[C@H](C)Cn1cnc2c(N)ncnc21 (stereo not given in full)	16	Metabolite_Notdetected	Metabolite_Notdetected	Metabolite_Detected	inactive						40	45	Metabolite_Notdetected	Metabolite_Notdetected
